# “Also recorded” adds a separate entry of the source. Where two headings read alike, the source gives them in different places.
# Assays:
# [1] = system: Primary cortical neurons; assay: H2O2-induced oxidative stress (150 μM), MTS assay, comparison with known neuroprotectants; assay type: cell-based, rat; details: 24 h pre-treatment, then harsh H2O2 treatment (150 μM)
# Experimental: Primary cortical neurons were isolated from a 17 day old rat embryonic brain and seeded on 96-well plate at 50,000 cells/well in regular neurobasal medium for 2-3 week. Twice, half the amount of medium was replaced with fresh neurobasal medium containing no antioxidants. […] Other known neuroprotectants were dissolved in the proper solvent and diluted into final concentration as indicated. […] Each assay was performed in triplicate. After 24 hours, the cultures were evaluated for viability and mitochondrial function using a standard MTS Assay (Promega). The manufacturer's protocols were followed. Experiments were carried out following the procedures described in the Study Design described above. PAN-811 was dissolved in EtOH at 1 mg/ml (˜5 mM), and further diluted in neurobasal medium to final concentration at 0.1 μM, 1 μM, and 10 μM. Lipoic acid was dissolved in EtOH at concentration 240 mM, and further diluted in the neurobasal medium to final concentration at 10 uM, 25 uM, 50 uM and 100 uM. Vitamin E dissolved in EtOH at concentration 100 mM, and further diluted in the neurobasal medium to final concentration at 50 uM, 100 uM, 200 uM and 400 uM. Ginkgo Biloba was dissolved in dH2O at concentration 6 mg/ml, and further diluted in the neurobasal medium to final concentration at 2.5 ug/ml, 5 ug/ml, 25 ug/ml, 250 ug/ml. At the end of the treatment, the medium was replaced with 100 μl fresh pre-warmed neurobasal medium plus B27 (-AO). The plates were returned to the incubator at 37° C. with 5% CO2 for one hour. Subsequently 20 μl MTS reagent was added to each well and plates were incubated at 37° C. with 5% CO2 for an additional two hours. The absorbance at 490 nm for each well was recorded with the BioRad plate reader (Model 550). Wells containing medium alone were used as blanks. Each data point is the average of three separate assay wells. […] Two weeks old primary cultures were used for this set of study. Please see FIG. 1 for results.
# [2] = system: Cortical neurons; details: for protection from neuronal cell death (morphology): 5 μM, hypoxia, FIG. 4
# Experimental: (§1) Experiments were performed in a 96-well plate format. Cortical neurons were seeded at a density of 50,000 cells/well on poly-D-lysine coated surface, and cultured in serum-free medium (NB plus B27 supplement) to obtain cultures high-enriched for neurons. Neurons were cultured for over 14 d.i.v. to increase cell susceptibility to excitatory amino acids (Jiang et al., 2001). Six replicate wells were treated as a group to facilitate assay quantitation.
# (§2) To mimic the cerebral environments of a stroke, we established 3 in vitro model systems. The extreme H/H model (0.4 mM glucose) is a mimic of the environment in the central core of an infarct; the mild H/H model (1.63 mM glucose) is a mimic of the environment in the penumbra during MCAO; and the hypoxia only model (neurons in normal in vitro glucose concentration—25 mM) is a mimic of the environment in the penumbra after reperfusion since the possible cell death after reperfusion is predominantly a result of the hypoxic effect rather then energy failure.
# (§3) Hypoxia/hypoglycemia was obtained by reducing glucose concentration down to 0.4 mM and 1.63 mM for extreme H/H and mild H/H respectively. BSS (116.0 mM NaCl, 5.4 mM KCl, 0.8 mM MgSO4.7H2O, 1.0 mM NaH2PO4, 1.8 mM CaCl2.2H2O, 26.2 mM NaHCO3, and 0.01 mM Glycine) or BSS with 25 mM glucose were de-gassed for 5 minutes prior to use. Culture medium in the plates for hypoxia was replaced with BSS or BSS with glucose. Meanwhile, culture medium in the plates for normoxia was replaced with non de-gassed BSS or BSS with glucose. Cells were committed to hypoxic conditions by transferring the plates into a sealed container (Modular Incubator Chamber-101TM, Billups-Rothenberg, Inc.), applying a vacuum for 20 minutes to remove O2 or other gases from the culture medium, and then refilling the chamber with 5% CO2 and 95% N2 at a pressure of 30 psi for 1 minute. The level of O2 in the chamber was determined to be zero with an O2 indicator (FYRITE Gas Analyzer, Bacharach, Inc.). Culture plates were maintained in the chamber for 6 hours. As an experimental control, duplicate culture plates were maintained under normal culture condition (5% CO2 and 95% ambient air) for the same duration. After a 6-hour treatment plates were removed from the chamber and the medium in both the hypoxic and normoxic cultures was replaced with a termination solution (DMEM supplemented with 1× sodium pyruvate, 10.0 mM HEPES, and 1×N2 supplement) containing 25 mM glucose and cultured in 5% CO2 and 95% ambient air conditions. […] MK801 was utilized as a positive control. Mitochondrial function and cell death were evaluated at 24 or 48 hours post H/H insult with the MTS and LDH analyses (see below).
# Treatment with drug was continued during and subsequent to a 24-hour period of hypoxia. Cellular morphology and function (MTS and LDH assays) were measured 24 or 48 hours subsequent to the hypoxic insult.
# (§4) The MTS assay is a colorimetric assay that measures the mitochondrial function in metabolically active cells. This measurement indirectly reflects cell viability. […] 20 μl of MTS reagent (Promega) are added to each well of the 96 well assay plates containing the samples in 100 μl of culture medium. The plate is then incubated in a humidified, 5% CO2 atmosphere at 37° C. for 1-2 hours until the color is fully developed. The absorbance at 490 nm was recorded using a Bio-Rad 96 well plate reader.
# Lactate dehydrogenase (LDH) assay is based on the reduction of NAD by the action of LDH.
# [3] = system: enriched neuronal cultures (cerebellar tissue); assay: In vitro models of excitotoxicity (H/H, glutamate, staurosporine, veratridine), MTT assay; details: MTT 24 hrs after insult
# Experimental: Neuronal culture. Enriched neuronal cultures were prepared from 15-day-old Sprague-Dawley rat embryos. Using aseptic techniques, the rat embryos were removed from the uterus and placed in sterile neuronal culture medium. Using a dissecting microscope, the brain tissue was removed from each embryo, with care taken to discard the meninges and blood vessels. […] Cells were dissociated by trituration of the tissue and were plated at a density of 5×10^5 cells/well onto 48-well culture plates precoated with poly(L-lysine). Cultures were maintained in a medium containing equal parts of Eagle's basal medium (without glutamine) and Ham's F-12k medium supplemented with 10% heat-inactivated horse serum, 10% fetal bovine serum, 600 μg/ml glucose, 100 μg/ml glutamine, 50 U/ml penicillin, and 50 μg/ml streptomycin. After 48 h, 10 μM cytosine arabinoside was added to inhibit non-neuronal cell division. Cells were used in experiments after 7 days in culture.
# Four in vitro models of excitotoxicity were studied. Cells were either exposed to H/H conditions for 3 hrs or treated for 45 min with either glutamate (100 μM), staurosporine (1 μM) or veratridine (10 μM). All cells were cotreated with or without PAN-811 (10 μM) in Locke's solution. At the conclusion of the respective excitotoxic exposures, the condition medium (original) was replaced. H/H was induced by incubating the cells in a humidified airtight chamber saturated with 95% nitrogen, 5% CO2 gas for 3 hrs. in Locke's solution without added glucose.
# 24 hrs. after the excitotoxic insult cell viability assessments were made. Cell damage was quantitatively assessed using a tetrazolium salt colorimetric assay with 3-(4,5-dimethylthiazol-2-yl)-2,5-diphenyltetrazolium (MTT; Sigma Chemical Co., St. Louis, Mo.). Briefly, the dye was added to each well (final concentration, 1.5 mg/ml), cells were incubated with MTT-acidified isopropanol (0.1 N HCl in isopropanol), and the absorbance intensity (540 nm) of each sample was measured in a 96-well plate reader. Values are expressed relative to vehicle-treated control cells that were maintained on each plate, and the percentage change in cell viability was calculated.
# [4] = system: Cortical neurons; assay: Extreme hypoxia/hypoglycemia (H/H) model (0.4 mM glucose)
# Experimental: as §1
# To mimic the cerebral environments of a stroke, we established 3 in vitro model systems. […]
# Hypoxia/hypoglycemia was obtained by reducing glucose concentration down to 0.4 mM and 1.63 mM for extreme H/H and mild H/H respectively. […] The level of O2 in the chamber was determined to be zero with an O2 indicator (FYRITE Gas Analyzer, Bacharach, Inc.). […] Mitochondrial function and cell death were evaluated at 24 or 48 hours post H/H insult with the MTS and LDH analyses (see below).
# The MTS assay is a colorimetric assay that measures the mitochondrial function in metabolically active cells. […] The absorbance at 490 nm was recorded using a Bio-Rad 96 well plate reader. […]
# [5] = system: Primary cortical neurons; assay: H2O2-induced oxidative stress (60-70 μM), MTS assay; assay type: cell-based, rat; details: 1-10 μM, 24 h pre-treatment, then 60-70 μM H2O2, MTS
# Experimental: Primary cortical neurons were isolated from a 17 day old rat embryonic brain and seeded on 96-well plate at 50,000 cells/well in regular neurobasal medium for 2-3 week. Twice, half amount of medium was replaced with fresh neurobasal medium containing no antioxidants. […] Each assay was performed in triplicate. […] After 24 hours, the cultures were evaluated for viability and mitochondrial function using a standard MTS Assay (Promega). The manufacturer's protocols were followed. Experiments were carried out following the procedures described in the study design. At the end of the treatment, all treatments and medium were replaced with 100 μl fresh pre-warmed neurobasal medium plus B27 (-AO). The plates were put back into the incubator at 37° C. with 5% CO2 for one hour, then 20 μl MTS reagent was added to each well and plates were incubated at 37° C. with 5% CO2 for an additional two hours. The absorbance at 490 nm for each well was recorded with the BioRad plate reader (Model 550). Wells containing medium alone well was used as blanks. Each data point is the average of three separate assay wells. […] Three weeks old primary cultures were used for this set of study. Please see FIG. 10 for results. Experiments were carried out following the same procedures as experiment 1.
# [6] = system: male Sprague-Dawley rats, MCAO
# [7] = system: enriched neuronal cultures (cerebellar tissue); assay: Neurotoxicity of PAN-811, MTT assay; details: 24 hrs
# Experimental: Neuronal culture. Enriched neuronal cultures were prepared from 15-day-old Sprague-Dawley rat embryos. Using aseptic techniques, the rat embryos were removed from the uterus and placed in sterile neuronal culture medium. Using a dissecting microscope, the brain tissue was removed from each embryo, with care taken to discard the meninges and blood vessels. […] Cells were dissociated by trituration of the tissue and were plated at a density of 5×10^5 cells/well onto 48-well culture plates precoated with poly(L-lysine). […]
# 3.3.1.2 Neurotoxicity of PAN-811. […] Cell viability was determined in the MTT assay.
# 3.1.3.4 MTT Assay. […] Cell damage was quantitatively assessed using a tetrazolium salt colorimetric assay with 3-(4,5-dimethylthiazol-2-yl)-2,5-diphenyltetrazolium (MTT; Sigma Chemical Co., St. Louis, Mo.). Briefly, the dye was added to each well (final concentration, 1.5 mg/ml), cells were incubated with MTT-acidified isopropanol (0.1 N HCl in isopropanol), and the absorbance intensity (540 nm) of each sample was measured in a 96-well plate reader. Values are expressed relative to vehicle-treated control cells that were maintained on each plate, and the percentage change in cell viability was calculated.
# [8] = system: Cortical neurons; details: for protection from mild H/H: pre-treatment 24 h, H/H 6 h
# Experimental: as §1, §2, §3, §4
# Lactate dehydrogenase (LDH) assay is based on the reduction of NAD by the action of LDH. The resulting reduced NAD (NADH) is utilized in the stoichiometric conversion of a tetrazolium dye. If cell-free aliquots of medium from cultures given different treatments are assayed, then the amount of LDH activity can be used as an indicator of relative cell death as well as a function of membrane integrity. A 50 μl aliquot of culture medium from a well in tested 96-well plate is transferred into a well in unused plate and supplemented with 25 μl of equally-mixed Substrate, Enzyme and Dye Solutions (Sigma).
# [9] = system: Primary cortical neurons; assay: ROS generation, CM-H2DCFDA / c-DCF fluorescence; assay type: cell-based, rat; details: at 10 μM
# Experimental: Primary cortical neurons were isolated from a 17 day old rat embryonic brain and seeded in 96-well plates at 50,000 cells/well in regular neurobasal medium for 2-3 weeks. Twice, half the amount of medium was replaced with fresh neurobasal medium without antioxidants. […] Untreated cells loaded with the dye were used as controls to calculate the c-DCF fluorescence change. Each assay was performed in triplicate. Experiments were carried out following the procedures described in the Study Design described above. The c-DCF fluorescence at 485/520 nm (Ex/Em) for each well was recorded with the BMG polar star plate reader. Wells containing cells without dye were used as blanks. Each data point is the average of three separate assay wells. Untreated cells loaded with the dye were used as a control to calculate the c-DCF fluorescence change. Two weeks old primary cultures were used for the study.
# [10] = Solubility of PAN-811 in solvents; details: PEG-300/EtOH (70%/30%) versus EtOH
# Experimental: PAN-811 was dissolved in either EtOH or DMSO at 1 mg/ml (˜5 mM), in PEG-300/EtOH (70%/30%) at 5 mg/ml (˜25 mM), and further diluted in medium to final concentration at 1 μM, 5 μM, 20 μM and 50 μM. […] Equal volume of solvents (EtOH, DMSO, and PEG-300/EtOH) was added to cells to test the solvent effects on the assay.
molecule,measurement,setting,value
"O=C(O)CCCC[C@@H]1CCSS1 (racemic) [Lipoic acid, reference compound]",neuroprotective capacity,[1]; known neuroprotectants,minimal neuroprotective capacity
"C[C@]12N[C@H](Cc3ccccc31)c1ccccc12 [MK801, reference compound]",protection from neuronal cell death (morphology),[2],efficient protection from neuronal cell death
"NC(=S)N/N=C/c1ncccc1N [PAN-811, 3-aminopyridine-2-carboxaldehyde thiosemicarbazone]",protection from damage by staurosporine,"[3]; 10 μM PAN-811, 1 μM staurosporine 45 min",~47%
same,protection from damage by veratridine,"[3]; 10 μM PAN-811, 10 μM veratridine 45 min",~39%
same,protection from damage by glutamate,"[3]; 10 μM PAN-811, 100 μM glutamate 45 min",~75%
same,protection from damage by hypoxia/hypoglycemia,"[3]; 10 μM PAN-811, 3 hour H/H",92%
same,block of extreme H/H-induced neuronal cell death,[4]; at 100 μM,only partially blocked
same,protection from neuronal cell death,"[4]; at ≦50 μM, extreme H/H (data not shown)",did not protect neuronal cell death
same,neuroprotective capacity,[5],good neuroprotective capacity
same,block of neuronal cell death and mitochondrial dysfunction,"[2]; 2 μM, 24 hours prior to, during and subsequent to 24-hour hypoxia",completely blocking neuronal cell death and mitochondrial dysfunction
same,block of hypoxia-induced cell death,"[2]; 2 μM, 48 h prior to, during 24-hour hypoxia and 48 h subsequent",completely blocked the cell death
same,protection from neuronal cell death (morphology),[2],efficient protection from neuronal cell death
same,protection from sole hypoxia-induced neurotoxicity,[2]; at 2 μM,completely protected
same,neuroprotective capacity,[1]; PAN-811 at 1-10 μM,good neuroprotective capacity; also recorded: significant neuroprotection
same,range of infarct volume,"[6]; 1 mg/kg IV 10 minutes prior to 2 h MCAO, 24 hours after surgery",42.36-387.08 mm^3
same,mean infarct volume,"[6]; 1 mg/kg IV 10 minutes prior to 2 h MCAO, 24 hours after surgery, n 14",225.85 mm^3
same,% protection (reduction in average infarct volume vs vehicle),"[6]; 1 mg/kg IV 10 minutes prior to MCAO, p<0.05",23%
same,rats that died (of 7 deaths from severe stroke or SAH),"[6]; 1 mg/kg IV, 6 of the 7 deaths were vehicle rats",1 rat
same,tolerability / toxicity,"[6]; rat, in vivo",well tolerated and relatively non-toxic
same,neurotoxicity,[7]; concentrations up to 100 μM,only slight toxicity
same,maximal toxicity,[7]; highest concentration tested (100 μM),7.8%
same,protection from mild H/H,"[8]; 2 μM, Apr. 17, 2003, culture age 13 days, 48 h post H/H",100% protected
same,protection from mild H/H,"[8]; 2 μM, Jul. 9, 2003, culture age 13 days, 20 h post H/H",100% protected
same,protection from mild H/H,"[8]; 2 μM, May 2, 2003, culture age 22 days, 24 h post H/H",100% protected
same,protection from mild H/H,"[8]; 2 μM, May 8, 2003, culture age 42 days, 24 h post H/H",100% protected
same,protection from H/H-induced mitochondria dysfunction and neuronal cell death,"[8]; 5 μM, 24 hours before and during 6-hour H/H, 15-day culture, MTS and LDH 17 hours post",completely protected
same,protection from mild H/H,"[8]; 5 μM, Jul. 25, 2003, culture age 15 days, 24 h post H/H, test range started from 5 μM",100% protected
same,protection from mild H/H,"[8]; 10 μM, Jul. 13, 2003, culture age 15 days, 24 h post H/H, test range started from 5 μM",100% protected
same,protection from mild H/H induced neurotoxicity,[8]; at 2 μM,completely protected
same,protection from neuronal cell death (LDH),"[8]; treatment 24 h before 6-hour H/H only, LDH 48 hours after H/H",marginally
same,reduction of the basal level of ROS generation,[9],~50%
same,reduction of H2O2-induced ROS generation,"[9]; 1 h, then 300 μM H2O2 for 2 hours",~30%
same,solubility,[10],better solubility in PEG-300/EtOH comparing to EtOH alone
Vitamin E [reference compound],neuroprotective capacity,[1]; known neuroprotectants,minimal neuroprotective capacity

# Reference: patent publication US7456179B2, “Methods of treating ischemic related conditions” (priority 2003, dated 2008)
